According to publication PMC3849192, “A Simple Method for Assessing Free Brain/Free Plasma Ratios Using an In Vitro Model of the Blood Brain Barrier” (PLoS ONE, 2013):

Test: Brain microdialysis, free brain and plasma concentration-time profiles
Assay type: in vivo
Details: male, Wistar, sc, rat, 30 µmol/kg s.c., read-out: Cu,br/Cu,pl in microdialysis
Experimental: Adult male Wistar rats (280–350 g; Harlan, Horst, The Netherlands) were used for the experiments.
Rats were anesthetized using isoflurane 2% and O2. Before the surgery, Fynadine (1 mg/kg s.c.) was administered for analgesia during surgery and recovery. A mixture of Marcaine and adrenaline was used for local anesthesia on the head. Implantation of a microdialysis probe into the brain and a catheter into the right jugular vein was performed in the same surgical procedure. After surgery animals were housed individually (cages 30×30×40 cm), food and water was ad libitum available. Surgery was carried out at least 24 hours before the start of the experiments.
Each animal was placed into a stereotaxic frame (Kopf instruments, USA). A non-metal guide cannula with a MetaQuant probe (MQ 6/4, regenerated cellulose membrane, 4 mm exposed surface, Brainlink, The Netherlands) was implanted with in the prefrontal cortex (PFC), its tip at the following coordinates: AP = 3.4 mm (to bregma), lateral 0.8 mm (to midline), ventral −5.0 mm (to dura) with Toothbar set at −3.3 mm, according to the atlas of Paxinos and Watson (1982). […]
To test whether probe recoveries were sufficiently high to enable quantitative measurements of brain extracellular concentrations in the in vivo microdialysis experiments, each of the compounds was subjected to an in vitro recovery test. […]

For `CN1CCN(C2=Nc3cc(Cl)ccc3Nc3ccccc32)CC1` [Clozapine], which Kp at 30 min (at 30 min) is on record?
The Kp at 30 min was 0.04.

What about the Kp at 240 min (at 240 min) of the same compound?
Its Kp at 240 min is 1.71.
